*1 amine or outer side, *2 acyl side, *3 side chain or, on linkers, in order; H or OH if unused. Where a SMILES comes first, the peptide text is derived from it. Bridges are numbered along the chain shown (N, C = ends). [ ]: non-standard residue; d: D form. The star is where a group is joined. NMeAla(5-Cl-2-cPrO-3-pyridyl) = CN[C@@H](Cc1cc(Cl)cnc1OC1CC1)C(=O)O; X58 = CC(C)C(=O)N1CC=C(c2ccc(Cl)cc2C[C@@H](C(=O)[*:2])N(C)[*:1])CC1; X105 = CN([C@@H](Cc1cc(Cl)ccc1-c1cnn(C2CCOC2)c1)C(=O)[*:2])[*:1]; X86 = CN([C@@H](Cc1cc(Cl)ccc1-c1cnn(C2CCOCC2)c1)C(=O)[*:2])[*:1]; X54 = CN([C@@H](Cc1cc(F)ccc1-c1cnn(C2CCC2)c1)C(=O)[*:2])[*:1]; X68 = CN([C@@H](Cc1cc(Cl)ccc1-c1cnn(C2CC2)c1)C(=O)[*:2])[*:1]; X79 = CC(C)n1cc(-c2ccc(Cl)cc2C[C@@H](C(=O)[*:2])N(C)[*:1])cn1; NMehhhLys(Me) = CN([C@@H](CCCCCCCN(C)[*:3])C(=O)[*:2])[*:1]; NMe3Pal(2-OiPr,5-Cl) = CN[C@@H](Cc1cc(Cl)cnc1OC(C)C)C(=O)O; NMe(hhhLys) = CN([C@@H](CCCCCCCN[*:3])C(=O)[*:2])[*:1]; X28 = CN([C@@H](Cc1cc(Cl)cnc1OC1CCC1)C(=O)[*:2])[*:1]; Cyclobutanecarbonyl(1-CF3) = O=C(C1(C(F)(F)F)CCC1)*; X94 = CN([C@@H](Cc1cc(F)ccc1C1CC1)C(=O)[*:2])[*:1]; cBuCO(3,3-F2-1-CF3) = O=C(C1(C(F)(F)F)CC(F)(F)C1)*; Pro(trans-4-F) = O=C(O)[C@@H]1C[C@@H](F)CN1; Gly(cPr) = N[C@H](C(=O)O)C1CC1
Columns and labels:
[1] = test system: WI-38 cells; assay: MTT proliferation assay, WI-38; type: cell-based; details: 3 days compound exposure, 1:3 serial dilution starting at 10 μM;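 note: Eight- or ten-point dilution series, with exposure length chosen to span about three to four cell doublings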
[2] = target: T1, CyclinA2/CDK2 (Homo sapiens, UniProt P20248); assay: Fluorescence Polarization (FP) competitive binding assay, Cyclin A2/Cdk2; details: 8 nM Cyclin A2/Cdk2, 2 nM FAM probe; average of 2-3 independent experiments; read-out: Cyclin A FP IC50;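 note: plates equilibrated two hours at room temperature before polarization reading, IC50 fitted from eight-concentration compound titration curves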
T1 construct: purchased CRELUX Protein Services

[3] = target: T2, CyclinE1/CDK2 (Homo sapiens, UniProt P24864); assay: Fluorescence Polarization (FP) competitive binding assay, Cyclin E1/Cdk2; details: 10 nM Cyclin E1/Cdk2, 2 nM FAM probe; average of 2-3 independent experiments; read-out: Cyclin E FP IC50;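 note: readings taken after two-hour equilibration at room temperature in HEPES buffer with NaCl, DTT, NP-40 and BSA, IC50 fitted from eight-concentration serial dilution series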
T2 construct: purchased Eurofins, discovery 14-475

[4] = test system: OVCAR3 cells; assay: MTT proliferation assay, OVCAR3; type: cell-based; details: 5 days compound exposure, 1:3 serial dilution starting at 10 μM;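 note: compound given as an 8- or 10-point series, one day after plating, with exposure covering roughly 3-4 cell doublings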
[5] = target: T3, CyclinB1/CDK1 (Homo sapiens, UniProt P14635); assay: Fluorescence Polarization (FP) competitive binding assay, Cyclin B1/Cdk1; details: 10 nM Cyclin B1/Cdk1, 2 nM FAM probe; average of 2-3 independent experiments; read-out: Cyclin B FP IC50;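 note: fluorescence polarization read after equilibration at room temperature, with IC50 taken from serially diluted dose-response curves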
T3 construct: purchased Eurofins, discovery 14-450

[6] = test system: NCI-H1048 cells; assay: MTT proliferation assay, NCI-H1048; type: cell-based; details: 5 days compound exposure, 1:3 serial dilution starting at 10 μM;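 note: Dose-response in 96-well plates over 8 or 10 concentration points, with exposure spanning 3-4 cell doublings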

Row | Structure (SMILES) | GI50 [1] | IC50 [2] | IC50 [3] | GI50 [4] | IC50 [5] | GI50 [6]
1 | CC(C)C[C@@H]1NC(=O)[C@@H](N(C)C(=O)[C@@H](NC(=O)[C@@H]2C[C@@H](F)CN2C(=O)C2(C(F)(F)F)CC(F)(F)C2)C2CC2)CCCCCCCN(C)C(=O)[C@H](Cc2cc(F)ccc2-c2cnn(C3CCC3)c2)N(C)C1=O [Example 96] ({cBuCO(3,3-F2-1-CF3)}-[Pro(trans-4-F)][Gly(cPr)][NMehhhLys(Me)]L[X54]; lactam 3-C) | 8920 nM | 20 nM | 120 nM | 10 nM | 20 nM | 10 nM
2 | CC(C)C[C@@H]1NC(=O)[C@@H](N(C)C(=O)[C@@H](NC(=O)[C@@H]2C[C@@H](F)CN2C(=O)C2(C(F)(F)F)CC(F)(F)C2)C2CC2)CCCCCCCNC(=O)[C@H](Cc2cc(Cl)ccc2C2=CCN(C(=O)C(C)C)CC2)N(C)C1=O [Example 98] ({cBuCO(3,3-F2-1-CF3)}-[Pro(trans-4-F)][Gly(cPr)][NMe(hhhLys)]L[X58]; lactam 3-C) | 16400 nM | 20 nM | 1100 nM | 20 nM | 20 nM | 20 nM
3 | CC(C)C[C@@H]1NC(=O)[C@@H](N(C)C(=O)[C@@H](NC(=O)[C@@H]2C[C@@H](F)CN2C(=O)C2(C(F)(F)F)CCC2)C2CC2)CC=CCCCCN(C)C(=O)[C@H](Cc2cc(Cl)cnc2OC2CC2)N(C)C1=O [Example 106] | 6390 nM | 120 nM | 240 nM | 540 nM | 20 nM | 410 nM
4 | CC(C)C[C@@H]1NC(=O)[C@@H](N(C)C(=O)[C@@H](NC(=O)[C@@H]2C[C@@H](F)CN2C(=O)C2(C(F)(F)F)CCC2)C2CC2)CCCCCCCN(C)C(=O)[C@H](Cc2cc(Cl)cnc2OC2CC2)N(C)C1=O [Example 109] ({Cyclobutanecarbonyl(1-CF3)}-[Pro(trans-4-F)][Gly(cPr)][NMehhhLys(Me)]L[NMeAla(5-Cl-2-cPrO-3-pyridyl)]; lactam 3-C) | 9520 nM | 40 nM | 170 nM | 20 nM | 20 nM | 20 nM
5 | CC(C)C[C@@H]1NC(=O)[C@@H](N(C)C(=O)[C@@H](NC(=O)[C@@H]2C[C@@H](F)CN2C(=O)C2(C(F)(F)F)CC(F)(F)C2)C2CC2)CCCCCCCN(C)C(=O)[C@H](Cc2cc(Cl)ccc2-c2cnn(C3CC3)c2)N(C)C1=O [Example 110] ({cBuCO(3,3-F2-1-CF3)}-[Pro(trans-4-F)][Gly(cPr)][NMehhhLys(Me)]L[X68]; lactam 3-C) | 4800 nM | 20 nM | 330 nM | 10 nM | 20 nM | 10 nM
6 | CC(C)C[C@@H]1NC(=O)[C@@H](N(C)C(=O)[C@@H](NC(=O)[C@@H]2C[C@@H](F)CN2C(=O)C2(C(F)(F)F)CC(F)(F)C2)C2CC2)CCCCCCCN(C)C(=O)[C@H](Cc2cc(Cl)ccc2-c2cnn(C(C)C)c2)N(C)C1=O [Example 111] ({cBuCO(3,3-F2-1-CF3)}-[Pro(trans-4-F)][Gly(cPr)][NMehhhLys(Me)]L[X79]; lactam 3-C) | 8130 nM | 20 nM | 280 nM | 10 nM | 20 nM | 10 nM
7 | CC(C)C[C@@H]1NC(=O)[C@@H](N(C)C(=O)[C@@H](NC(=O)[C@@H]2C[C@@H](F)CN2C(=O)C2(C(F)(F)F)CC(F)(F)C2)C2CC2)CCCCCCCN(C)C(=O)[C@H](Cc2cc(Cl)ccc2-c2cnn(C3CCOC3)c2)N(C)C1=O (stereo partly drawn) [Example 113] ({cBuCO(3,3-F2-1-CF3)}-[Pro(trans-4-F)][Gly(cPr)][NMehhhLys(Me)]L[X105]; lactam 3-C) | 7240 nM | 20 nM | 310 nM | 10 nM | 20 nM | 10 nM
8 | CC(C)C[C@@H]1NC(=O)[C@@H](N(C)C(=O)[C@@H](NC(=O)[C@@H]2C[C@@H](F)CN2C(=O)C2(C(F)(F)F)CC(F)(F)C2)C2CC2)CCCCCCCN(C)C(=O)[C@H](Cc2cc(Cl)ccc2-c2cnn(C3CCOCC3)c2)N(C)C1=O [Example 114] ({cBuCO(3,3-F2-1-CF3)}-[Pro(trans-4-F)][Gly(cPr)][NMehhhLys(Me)]L[X86]; lactam 3-C) | 7190 nM | 20 nM | 400 nM | 10 nM | 20 nM | 10 nM
9 | Cc1nnc(-c2ccc(Cl)cc2C[C@H]2C(=O)N(C)CCCCC=CC[C@H](N(C)C(=O)[C@@H](NC(=O)[C@@H]3C[C@@H](F)CN3C(=O)C3(C(F)(F)F)CCC3)C3CC3)C(=O)N[C@@H](CC(C)C)C(=O)N2C)o1 [Example 115] | 11000 nM | 40 nM | 170 nM | 60 nM | 20 nM | 70 nM
10 | CC(C)C[C@@H]1NC(=O)[C@@H](N(C)C(=O)[C@@H](NC(=O)[C@@H]2C[C@@H](F)CN2C(=O)C2(C(F)(F)F)CCC2)C2CC2)CCCCCCCN(C)C(=O)[C@H](Cc2cc(Cl)cnc2OC(C)C)N(C)C1=O [Example 119] ({Cyclobutanecarbonyl(1-CF3)}-[Pro(trans-4-F)][Gly(cPr)][NMehhhLys(Me)]L[NMe3Pal(2-OiPr,5-Cl)]; lactam 3-C) | 8710 nM | 30 nM | 100 nM | 300 nM | 20 nM | 250 nM
11 | CC(C)C[C@@H]1NC(=O)[C@@H](N(C)C(=O)[C@@H](NC(=O)[C@@H]2C[C@@H](F)CN2C(=O)C2(C(F)(F)F)CC(F)(F)C2)C2CC2)CCCCCCCN(C)C(=O)[C@H](Cc2cc(F)ccc2C2CC2)N(C)C1=O [Example 121] ({cBuCO(3,3-F2-1-CF3)}-[Pro(trans-4-F)][Gly(cPr)][NMehhhLys(Me)]L[X94]; lactam 3-C) | 7610 nM | 50 nM | 130 nM | 70 nM | 20 nM | 40 nM
12 | CC(C)C[C@@H]1NC(=O)[C@@H](N(C)C(=O)[C@@H](NC(=O)[C@@H]2C[C@@H](F)CN2C(=O)C2(C(F)(F)F)CC(F)(F)C2)C2CC2)CC=CCCCCNC(=O)[C@H](Cc2cc(Cl)cnc2OC2CC2)N(C)C1=O [Example 129] | 6880 nM | 210 nM | 820 nM | 2580 nM | 20 nM | 1460 nM
13 | CC(C)C[C@@H]1NC(=O)[C@@H](N(C)C(=O)[C@@H](NC(=O)[C@@H]2N[C@@H](F)CC2C(=O)C2(C(F)(F)F)CC(F)(F)C2)C2CC2)CC=CCCCCN(C)C(=O)[C@H](Cc2cc(Cl)cnc2OC(C)C)N(C)C1=O (stereo partly drawn) [Example 130] | 8990 nM | 70 nM | 310 nM | 1550 nM | 20 nM | 700 nM
14 | CC(C)C[C@@H]1NC(=O)[C@@H](N(C)C(=O)[C@@H](NC(=O)[C@@H]2C[C@@H](F)CN2C(=O)C2(C(F)(F)F)CCC2)C2CC2)CC=CCCCCN(C)C(=O)[C@H](Cc2cc(Cl)cnc2OC(C)C)N(C)C1=O [Example 137] | 4580 nM | 60 nM | 130 nM | 760 nM | 20 nM | 600 nM
15 | CC(C)C[C@@H]1NC(=O)[C@@H](N(C)C(=O)[C@@H](NC(=O)[C@@H]2C[C@@H](F)CN2C(=O)C2(C(F)(F)F)CCC2)C2CC2)CCCCCCCNC(=O)[C@H](Cc2cc(Cl)cnc2OC(C)C)N(C)C1=O [Example 138] ({Cyclobutanecarbonyl(1-CF3)}-[Pro(trans-4-F)][Gly(cPr)][NMe(hhhLys)]L[NMe3Pal(2-OiPr,5-Cl)]; lactam 3-C) | 6670 nM | 30 nM | 110 nM | 280 nM | 20 nM | 200 nM
16 | CC(C)C[C@@H]1NC(=O)[C@@H](N(C)C(=O)[C@@H](NC(=O)[C@@H]2C[C@@H](F)CN2C(=O)C2(C(F)(F)F)CCC2)C2CC2)CCCCCCCN(C)C(=O)[C@H](Cc2cc(Cl)cnc2OC2CCC2)N(C)C1=O [Example 139] ({Cyclobutanecarbonyl(1-CF3)}-[Pro(trans-4-F)][Gly(cPr)][NMehhhLys(Me)]L[X28]; lactam 3-C) | 6420 nM | 20 nM | 100 nM | 150 nM | 20 nM | 70 nM
